Laboratory results published in patent US10584128B2, “Bicyclic dihydropyrimidine-carboxamide derivatives as Rho-Kinase inhibitors” (CHIESI FARMACEUTICI S.p.A., priority 2016, dated 2020).

Experiments:
Rho kinase 2 = Rho kinase 2 (Homo sapiens, UniProt O75116); assay: In vitro Rho kinase inhibitory activity assay (ADP-Glo kit, Myelin Basic Protein substrate); type: biochemical; conditions: 10 μM ATP, 25° C., read-out: ROCK2 inhibitory activity (Ki, range of activity)
Protocol: (§1) The effectiveness of compounds of the present invention to inhibit Rho kinase activity can be determined in a 10 μl assay containing 40 mM Tris pH7.5, 20 mM MgCl2 0.1 mg/ml BSA, 50 μM DTT and 2.5 μM peptide substrate (Myelin Basic Protein) using an ADP-Glo kit (Promega). Compounds were dissolved in DMSO such that the final concentration of DMSO was 1% in the assay. All reactions/incubations are performed at 25° C. Compound (2 ul) and either Rho kinase 1 or 2 (4 μl) were mixed and incubated for 30 mins. Reactions were initiated by addition of ATP (4 μl) such that the final concentration of ATP in the assay was 10 μM. After a 1 hour incubation 10 μl of ADP-Glo Reagent was added and after a further 45 minute incubation 20 ul of Kinase Detection Buffer was added and the mixture incubated for a further 30 minutes. The luminescent signal was measured on a luminometer. […] Compounds were tested in dose-response format and the inhibition of kinase activity was calculated at each concentration of compound. To determine the IC50 (concentration of compound required to inhibit 50% of the enzyme activity) data were fit to a plot of % inhibition vs Log10 compound concentration using a sigmoidal fit with a variable slope and fixing the maximum to 100% and the minimum to 0%. To determine the Ki values the Cheng-Prusoff equation was utilized (Ki=IC50/(1+[S]/Km).

Rho kinase 1 = Rho kinase 1 (Homo sapiens, UniProt Q13464); assay: as above; type: biochemical; conditions: 10 μM ATP, 25° C., read-out: ROCK1 inhibitory activity (Ki, range of activity)
Protocol: as §1

Sequence of Rho kinase 2 (O75116 whole entry): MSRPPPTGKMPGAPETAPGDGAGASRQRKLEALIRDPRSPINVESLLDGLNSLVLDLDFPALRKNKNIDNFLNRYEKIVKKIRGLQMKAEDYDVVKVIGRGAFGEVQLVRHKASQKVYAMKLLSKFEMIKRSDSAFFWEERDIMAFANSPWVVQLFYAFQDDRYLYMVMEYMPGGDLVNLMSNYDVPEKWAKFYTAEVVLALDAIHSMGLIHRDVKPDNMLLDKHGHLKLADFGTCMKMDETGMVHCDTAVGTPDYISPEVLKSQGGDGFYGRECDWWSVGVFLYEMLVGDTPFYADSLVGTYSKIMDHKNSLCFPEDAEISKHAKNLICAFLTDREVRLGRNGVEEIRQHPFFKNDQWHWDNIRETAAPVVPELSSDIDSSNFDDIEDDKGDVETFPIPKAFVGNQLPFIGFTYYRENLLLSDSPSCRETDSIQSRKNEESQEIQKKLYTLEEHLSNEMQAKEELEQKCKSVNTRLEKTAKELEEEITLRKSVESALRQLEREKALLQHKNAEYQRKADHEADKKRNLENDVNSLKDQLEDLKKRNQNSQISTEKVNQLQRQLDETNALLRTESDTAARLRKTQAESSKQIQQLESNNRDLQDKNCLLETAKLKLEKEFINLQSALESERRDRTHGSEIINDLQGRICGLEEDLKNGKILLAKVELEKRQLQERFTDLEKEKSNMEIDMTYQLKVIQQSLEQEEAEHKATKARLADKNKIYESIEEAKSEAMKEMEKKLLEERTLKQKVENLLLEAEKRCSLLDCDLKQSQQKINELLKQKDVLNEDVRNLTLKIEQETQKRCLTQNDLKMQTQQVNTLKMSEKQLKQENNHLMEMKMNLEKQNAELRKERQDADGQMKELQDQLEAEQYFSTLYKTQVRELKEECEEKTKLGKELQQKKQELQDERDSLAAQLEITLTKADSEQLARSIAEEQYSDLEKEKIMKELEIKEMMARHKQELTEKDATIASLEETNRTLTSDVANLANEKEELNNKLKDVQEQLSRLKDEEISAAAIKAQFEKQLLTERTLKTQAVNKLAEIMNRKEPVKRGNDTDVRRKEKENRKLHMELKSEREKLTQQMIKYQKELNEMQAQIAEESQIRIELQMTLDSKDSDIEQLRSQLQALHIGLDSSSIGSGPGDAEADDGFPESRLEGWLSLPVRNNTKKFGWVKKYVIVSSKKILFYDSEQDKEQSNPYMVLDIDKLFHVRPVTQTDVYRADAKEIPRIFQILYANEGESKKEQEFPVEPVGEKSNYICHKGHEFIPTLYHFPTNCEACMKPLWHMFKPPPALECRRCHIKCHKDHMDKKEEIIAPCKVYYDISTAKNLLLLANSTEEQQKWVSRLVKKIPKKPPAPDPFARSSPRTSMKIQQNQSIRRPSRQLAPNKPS
Sequence of Rho kinase 1 (Q13464 whole entry): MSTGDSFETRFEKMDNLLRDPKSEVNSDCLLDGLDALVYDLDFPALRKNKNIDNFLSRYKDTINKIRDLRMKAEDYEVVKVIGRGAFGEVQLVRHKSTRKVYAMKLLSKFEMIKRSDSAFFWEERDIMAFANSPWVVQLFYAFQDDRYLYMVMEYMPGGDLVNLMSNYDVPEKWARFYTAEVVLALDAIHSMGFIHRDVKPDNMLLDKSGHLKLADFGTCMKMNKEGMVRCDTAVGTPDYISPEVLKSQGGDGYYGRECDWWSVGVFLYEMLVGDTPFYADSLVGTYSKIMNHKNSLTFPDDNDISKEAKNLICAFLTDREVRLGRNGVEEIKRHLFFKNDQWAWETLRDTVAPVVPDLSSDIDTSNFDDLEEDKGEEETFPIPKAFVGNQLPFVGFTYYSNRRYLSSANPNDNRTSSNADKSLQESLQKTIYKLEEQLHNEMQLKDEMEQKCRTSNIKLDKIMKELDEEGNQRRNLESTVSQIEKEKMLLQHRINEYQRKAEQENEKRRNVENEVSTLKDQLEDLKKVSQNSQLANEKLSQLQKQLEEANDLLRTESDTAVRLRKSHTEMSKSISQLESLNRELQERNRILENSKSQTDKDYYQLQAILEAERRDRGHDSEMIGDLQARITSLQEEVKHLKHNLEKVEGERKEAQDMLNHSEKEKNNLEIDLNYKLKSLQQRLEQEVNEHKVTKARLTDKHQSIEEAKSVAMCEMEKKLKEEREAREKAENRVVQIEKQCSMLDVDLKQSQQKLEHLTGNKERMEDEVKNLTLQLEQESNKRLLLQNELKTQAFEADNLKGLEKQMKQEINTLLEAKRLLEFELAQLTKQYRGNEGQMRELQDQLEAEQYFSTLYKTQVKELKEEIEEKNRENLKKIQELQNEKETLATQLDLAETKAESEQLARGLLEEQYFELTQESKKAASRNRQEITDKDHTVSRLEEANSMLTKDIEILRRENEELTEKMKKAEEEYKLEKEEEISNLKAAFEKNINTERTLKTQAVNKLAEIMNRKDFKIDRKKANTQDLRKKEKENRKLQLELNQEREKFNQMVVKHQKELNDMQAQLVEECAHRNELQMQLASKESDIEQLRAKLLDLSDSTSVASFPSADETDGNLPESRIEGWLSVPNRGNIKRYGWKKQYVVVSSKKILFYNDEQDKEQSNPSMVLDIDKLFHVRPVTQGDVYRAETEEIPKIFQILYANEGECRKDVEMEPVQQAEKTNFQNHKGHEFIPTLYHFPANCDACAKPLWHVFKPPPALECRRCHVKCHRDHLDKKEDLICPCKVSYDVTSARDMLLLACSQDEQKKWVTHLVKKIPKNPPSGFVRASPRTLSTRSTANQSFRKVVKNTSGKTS

Question: Which Ki (Rho kinase 2) does the source give for CC1=C(C(=O)Nc2ccc3cnccc3c2)C(c2ccc(C(F)(F)F)c(F)c2)n2nc(C3COC3)cc2N1 (stereo not drawn) [Example 116, 7-(3-fluoro-4-(trifluoromethyl)phenyl)-N-(isoquinolin-6-yl)-5-methyl-2-(oxetan-3-yl)-4,7-dihydropyrazolo[1,5-a]pyrimidine-6-carboxamide] here?
Answer: Its Ki is less than 50 nM.

Question: What about the Ki (Rho kinase 1) of the same compound?
Answer: The Ki was less than 50 nM.

Question: What does the source list for CC1=C(C(=O)Nc2ccc3cnccc3c2)C(c2ccc(C(F)(F)F)c(F)c2)n2nc(C(=O)NCCN3CCN(C)CC3)cc2N1 (stereo not drawn) [Example 81, 7-(3-fluoro-4-(trifluoromethyl)phenyl)-N6-(isoquinolin-6-yl)-5-methyl-N2-(2-(4-methylpiperazin-1-yl)ethyl)-4,7-dihydropyrazolo[1,5-a]pyrimidine-2,6-dicarboxamide]?
Answer: Ki (Rho kinase 2): < 50 nM; Ki (Rho kinase 1): < 50 nM

Question: Which Ki (Rho kinase 2) does the source give for O=C(Nc1ccc2cnccc2c1)C1=C(C2CC2)Nc2cc(CO)nn2C1c1ccc(C(F)(F)F)c(F)c1 (stereo not drawn) [Example 118, 5-cyclopropyl-7-(3-fluoro-4-(trifluoromethyl)phenyl)-2-(hydroxymethyl)-N-(isoquinolin-6-yl)-4,7-dihydropyrazolo[1,5-a]pyrimidine-6-carboxamide] here?
Answer: Its Ki is less than 50 nM.

Question: And the Ki (Rho kinase 1)?
Answer: The Ki was less than 50 nM.

Question: What does the source list for CC1=C(C(=O)Nc2ccc3[nH]ncc3c2)C(c2ccc(C(F)(F)F)cc2)n2nc(CN3CCOCC3)cc2N1 (stereo not drawn) [Example 107, N-(1H-indazol-5-yl)-5-methyl-2-(morpholinomethyl)-7-(4-(trifluoromethyl)phenyl)-4,7-dihydropyrazolo[1,5-a]pyrimidine-6-carboxamide]?
Answer: Ki (Rho kinase 2): < 50 nM; Ki (Rho kinase 1): < 50 nM

Question: CC1=C(C(=O)Nc2ccc3cnccc3c2)C(c2cccc(Oc3ccccc3)c2)n2nc(CO)cc2N1 (stereo not drawn) [Example 50, 2-(hydroxymethyl)-N-(isoquinolin-6-yl)-5-methyl-7-(3-phenoxyphenyl)-4,7-dihydropyrazolo[1,5-a]pyrimidine-6-carboxamide] was tested. Which Ki (Rho kinase 2) did it give?
Answer: The Ki was less than 50 nM.

Question: What about the Ki (Rho kinase 1) of the same compound?
Answer: The Ki was 50 to 500 nM.

Question: With CC1=C(C(=O)Nc2ccc3cnccc3c2)C(c2ccc(C(F)(F)F)c(F)c2)n2nc(N)cc2N1 (single isomer, unassigned) [130A] as the compound, how does the Ki (Rho kinase 2) read?
Answer: The Ki was greater than 500 nM.

Question: And the Ki (Rho kinase 1)?
Answer: Its Ki is greater than 500 nM.

Question: Which results are given for CC1=C(C(=O)Nc2ccc3cnccc3c2)C(c2cccc(C(F)(F)F)c2)n2nc(CO)cc2N1 (stereo not drawn) [Example 51, 2-(hydroxymethyl)-N-(isoquinolin-6-yl)-5-methyl-7-(3-(trifluoromethyl)phenyl)-4,7-dihydropyrazolo[1,5-a]pyrimidine-6-carboxamide]?
Answer: Ki (Rho kinase 2): < 50 nM; Ki (Rho kinase 1): < 50 nM

Question: Which Ki (Rho kinase 2) does the source give for CC1=C(C(=O)Nc2cc3cn[nH]c3cc2F)C(c2ccc(Cl)nc2)n2nc(C(F)(F)F)cc2N1 (stereo not drawn) [Example 39, 7-(6-chloropyridin-3-yl)-N-(6-fluoro-1H-indazol-5-yl)-5-methyl-2-(trifluoromethyl)-4,7-dihydropyrazolo[1,5-a]pyrimidine-6-carboxamide] here?
Answer: The Ki was less than 50 nM.

Question: What about the Ki (Rho kinase 1) of the same compound?
Answer: The Ki was less than 50 nM.

Question: Which Ki (Rho kinase 2) does the source give for CC1=C(C(=O)Nc2ccc3cnccc3c2)C(c2ccc(C(F)(F)F)c(F)c2)n2nc(CN(C)C)cc2N1 (single isomer, unassigned) [Example 94A, 2-((dimethylamino)methyl)-7-(3-fluoro-4-(trifluoromethyl)phenyl)-N-(isoquinolin-6-yl)-5-methyl-4,7-dihydropyrazolo[1,5-a]pyrimidine-6-carboxamide] here?
Answer: Its Ki is 50 to 500 nM.

Question: And the Ki (Rho kinase 1)?
Answer: The Ki was 50 to 500 nM.

Question: For CC1=C(C(=O)Nc2ccc3cnccc3c2)C(C2Cc3ccccc3C2)n2nc(CN(C)C)cc2N1 (stereo not drawn) [Example 124, 7-(2,3-dihydro-1H-inden-2-yl)-2-((dimethylamino)methyl)-N-(isoquinolin-6-yl)-5-methyl-4,7-dihydropyrazolo[1,5-a]pyrimidine-6-carboxamide], which Ki (Rho kinase 2) is on record?
Answer: Its Ki is less than 50 nM.

Question: And the Ki (Rho kinase 1)?
Answer: The Ki was less than 50 nM.

Question: For CCOC(=O)c1cc2n(n1)C(c1ccc(C(F)(F)F)c(F)c1)C(C(=O)Nc1ccc3cncc(C)c3c1)=C(C)N2 (stereo not drawn) [Example 114, ethyl 7-(3-fluoro-4-(trifluoromethyl)phenyl)-5-methyl-6-((4-methylisoquinolin-6-yl)carbamoyl)-4,7-dihydropyrazolo[1,5-a]pyrimidine-2-carboxylate], which Ki (Rho kinase 2) is on record?
Answer: Its Ki is less than 50 nM.

Question: What about the Ki (Rho kinase 1) of the same compound?
Answer: The Ki was less than 50 nM.

Question: CC1=C(C(=O)Nc2ccc3cnccc3c2)C(c2ccc(C(F)(F)F)c(F)c2)n2nc(C(=O)NCCN3CCCCC3)nc2N1 (single isomer, unassigned) [Example 129a, 7-(3-fluoro-4-(trifluoromethyl)phenyl)-N6-(isoquinolin-6-yl)-5-methyl-N2-(2-(piperidin-1-yl)ethyl)-4,7-dihydro-[1,2,4]triazolo[1,5-a]pyrimidine-2,6-dicarboxamide] was tested. Which Ki (Rho kinase 2) did it give?
Answer: Its Ki is less than 50 nM.

Question: What about the Ki (Rho kinase 1) of the same compound?
Answer: The Ki was less than 50 nM.

Question: Which results are given for CC1=C(C(=O)Nc2ccc3cnccc3c2)C(c2ccc(Cl)cc2F)n2nc(CO)cc2N1 (stereo not drawn) [Example 64, 7-(4-chloro-2-fluorophenyl)-2-(hydroxymethyl)-N-(isoquinolin-6-yl)-5-methyl-4,7-dihydropyrazolo[1,5-a]pyrimidine-6-carboxamide]?
Answer: Ki (Rho kinase 2): < 50 nM; Ki (Rho kinase 1): < 50 nM

Question: How did the Ki (Rho kinase 2) turn out when CC1=C(C(=O)Nc2ccc3cnccc3c2)C(c2ccc3ccsc3c2)n2nc(CO)cc2N1 (stereo not drawn) [Example 46, 7-(benzo[b]thiophen-6-yl)-2-(hydroxymethyl)-N-(isoquinolin-6-yl)-5-methyl-4,7-dihydropyrazolo[1,5-a]pyrimidine-6-carboxamide] was run?
Answer: The Ki was less than 50 nM.

Question: And the Ki (Rho kinase 1)?
Answer: The Ki was less than 50 nM.

Question: Which results are given for CC1=C(C(=O)Nc2ccc3cnccc3c2)C(c2ccc(Cl)c(F)c2)n2nc(CO)cc2N1 (stereo not drawn) [Example 57, 7-(4-chloro-3-fluorophenyl)-2-(hydroxymethyl)-N-(isoquinolin-6-yl)-5-methyl-4,7-dihydropyrazolo[1,5-a]pyrimidine-6-carboxamide]?
Answer: Ki (Rho kinase 2): < 50 nM; Ki (Rho kinase 1): < 50 nM

Question: How did the Ki (Rho kinase 2) turn out when CC1=C(C(=O)Nc2ccc3cnccc3c2)C(C2COc3ccccc3O2)n2nc(CO)cc2N1 (single isomer, unassigned) [Example 72D, 7-(2,3-dihydrobenzo[b][1,4]dioxin-2-yl)-2-(hydroxymethyl)-N-(isoquinolin-6-yl)-5-methyl-4,7-dihydropyrazolo[1,5-a]pyrimidine-6-carboxamide] was run?
Answer: The Ki was 50 to 500 nM.

Question: What about the Ki (Rho kinase 1) of the same compound?
Answer: The Ki was 50 to 500 nM.

Question: CSc1cc2n(n1)C(c1ccc(C(F)(F)F)c(F)c1)C(C(=O)Nc1ccc3cnccc3c1)=C(C)N2 (stereo not drawn) [Example 117, 7-(3-fluoro-4-(trifluoromethyl)phenyl)-N-(isoquinolin-6-yl)-5-methyl-2-(methylthio)-4,7-dihydropyrazolo[1,5-a]pyrimidine-6-carboxamide] was tested. Which Ki (Rho kinase 2) did it give?
Answer: The Ki was less than 50 nM.

Question: What about the Ki (Rho kinase 1) of the same compound?
Answer: The Ki was less than 50 nM.

Question: With CC1=C(C(=O)Nc2ccc3cnccc3c2)C(c2ccc(C(F)(F)F)c(F)c2)n2nc(CN3CCOCC3)cc2N1 (stereo not drawn) [Example 95, 7-(3-fluoro-4-(trifluoromethyl)phenyl)-N-(isoquinolin-6-yl)-5-methyl-2-(morpholinomethyl)-4,7-dihydropyrazolo[1,5-a]pyrimidine-6-carboxamide] as the compound, how does the Ki (Rho kinase 2) read?
Answer: Its Ki is less than 50 nM.

Question: And the Ki (Rho kinase 1)?
Answer: Its Ki is less than 50 nM.

Question: For CC1=C(C(=O)Nc2ccc3cnccc3c2)C(c2ccc(C(F)(F)F)c(F)c2)n2nc(C(=O)NCC3CCN(C)CC3)cc2N1 (stereo not drawn) [Example 84, 7-(3-fluoro-4-(trifluoromethyl)phenyl)-N6-(isoquinolin-6-yl)-5-methyl-N2-((1-methylpiperidin-4-yl)methyl)-4,7-dihydropyrazolo[1,5-a]pyrimidine-2,6-dicarboxamide], which Ki (Rho kinase 2) is on record?
Answer: Its Ki is less than 50 nM.

Question: What about the Ki (Rho kinase 1) of the same compound?
Answer: The Ki was less than 50 nM.

Question: CC1=C(C(=O)Nc2ccc3cnccc3c2)C(c2ccc(C(C)(C)C)cc2)n2nc(CO)cc2N1 (stereo not drawn) [Example 54, 7-(4-(tert-butyl)phenyl)-2-(hydroxymethyl)-N-(isoquinolin-6-yl)-5-methyl-4,7-dihydropyrazolo[1,5-a]pyrimidine-6-carboxamide] was tested. Which Ki (Rho kinase 2) did it give?
Answer: The Ki was less than 50 nM.

Question: And the Ki (Rho kinase 1)?
Answer: The Ki was 50 to 500 nM.

Question: With CCOC(=O)c1cc2n(n1)C(c1ccc(O)c(F)c1)C(C(=O)Nc1ccc3cnccc3c1)=C(C)N2 (stereo not drawn) [Example 10, ethyl 7-(3-fluoro-4-hydroxyphenyl)-6-(isoquinolin-6-ylcarbamoyl)-5-methyl-4,7-dihydropyrazolo[1,5-a]pyrimidine-2-carboxylate] as the compound, how does the Ki (Rho kinase 2) read?
Answer: The Ki was less than 50 nM.

Question: And the Ki (Rho kinase 1)?
Answer: Its Ki is less than 50 nM.

Question: For CC1=C(C(=O)Nc2ccc3[nH]ncc3c2)C(c2ccc(F)cc2)n2nc(CO)cc2N1 (single isomer, unassigned) [Example 71B, 7-(4-fluorophenyl)-2-(hydroxymethyl)-N-(1H-indazol-5-yl)-5-methyl-4,7-dihydropyrazolo[1,5-a]pyrimidine-6-carboxamide], which Ki (Rho kinase 2) is on record?
Answer: The Ki was greater than 500 nM.

Question: And the Ki (Rho kinase 1)?
Answer: Its Ki is greater than 500 nM.

Question: What does the source list for CC1=C(C(=O)Nc2ccc3cnccc3c2)C(C2Cc3ccccc3C2)n2nc(CN(C)C)cc2N1 (single isomer, unassigned) [Example 124b, 7-(2,3-dihydro-1H-inden-2-yl)-2-((dimethylamino)methyl)-N-(isoquinolin-6-yl)-5-methyl-4,7-dihydropyrazolo[1,5-a]pyrimidine-6-carboxamide]?
Answer: Ki (Rho kinase 2): < 50 nM; Ki (Rho kinase 1): < 50 nM

Question: CC1=C(C(=O)Nc2ccc3[nH]ncc3c2)C(c2ccc(C(F)(F)F)cc2)n2nnnc2N1 (single isomer, unassigned) [Example 27A, N-(1H-indazol-5-yl)-5-methyl-7-(4-(trifluoromethyl)phenyl)-4,7-dihydrotetrazolo[1,5-a]pyrimidine-6-carboxamide] was tested. Which Ki (Rho kinase 2) did it give?
Answer: Its Ki is less than 50 nM.

Question: And the Ki (Rho kinase 1)?
Answer: The Ki was less than 50 nM.
